{
  "source": "ChEMBL document CHEMBL3638666",
  "about": "“Selective kinase inhibitors” (2013)",
  "key": {"[1]": {"molecular_target": "Tyrosine-protein kinase JAK2 (Homo sapiens, UniProt O60674)", "sequence (O60674 whole entry)": "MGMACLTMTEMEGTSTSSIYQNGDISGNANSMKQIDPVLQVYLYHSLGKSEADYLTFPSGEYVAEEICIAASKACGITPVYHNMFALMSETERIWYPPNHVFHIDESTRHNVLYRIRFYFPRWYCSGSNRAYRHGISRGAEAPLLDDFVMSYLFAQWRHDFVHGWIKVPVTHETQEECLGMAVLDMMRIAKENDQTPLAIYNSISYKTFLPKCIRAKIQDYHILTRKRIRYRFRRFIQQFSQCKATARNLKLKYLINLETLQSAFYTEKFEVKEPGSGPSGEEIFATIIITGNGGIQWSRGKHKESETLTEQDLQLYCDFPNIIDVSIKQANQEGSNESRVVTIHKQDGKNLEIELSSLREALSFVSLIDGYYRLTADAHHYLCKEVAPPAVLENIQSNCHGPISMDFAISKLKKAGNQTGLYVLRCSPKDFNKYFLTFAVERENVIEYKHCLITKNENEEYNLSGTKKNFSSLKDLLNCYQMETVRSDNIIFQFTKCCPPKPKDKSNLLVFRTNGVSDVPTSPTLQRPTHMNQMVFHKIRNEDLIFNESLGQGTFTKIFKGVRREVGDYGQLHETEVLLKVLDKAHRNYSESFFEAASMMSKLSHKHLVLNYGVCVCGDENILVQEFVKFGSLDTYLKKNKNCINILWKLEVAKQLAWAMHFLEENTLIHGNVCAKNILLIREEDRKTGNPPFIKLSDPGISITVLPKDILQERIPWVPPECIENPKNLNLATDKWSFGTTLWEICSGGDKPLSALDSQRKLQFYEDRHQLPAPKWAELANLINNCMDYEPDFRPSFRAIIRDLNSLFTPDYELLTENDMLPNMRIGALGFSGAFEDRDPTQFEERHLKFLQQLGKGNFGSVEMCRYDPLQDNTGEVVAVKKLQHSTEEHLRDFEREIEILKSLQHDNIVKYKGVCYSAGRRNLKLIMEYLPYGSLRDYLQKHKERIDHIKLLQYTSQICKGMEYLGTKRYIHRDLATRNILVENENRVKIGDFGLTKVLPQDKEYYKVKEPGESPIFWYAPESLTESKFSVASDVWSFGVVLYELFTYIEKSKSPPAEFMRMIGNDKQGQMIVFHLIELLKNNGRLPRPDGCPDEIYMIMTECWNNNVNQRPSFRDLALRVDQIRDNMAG", "test": "(§1) In Vitro Kinase Enzyme Assay: In vitro kinase enzyme assay using Jak3, Jak2, Jak1, and Tyk2."}, "[2]": {"molecular_target": "T1, Tyrosine-protein kinase JAK3 (Homo sapiens, UniProt P52333)", "T1 sequence (P52333 whole entry)": "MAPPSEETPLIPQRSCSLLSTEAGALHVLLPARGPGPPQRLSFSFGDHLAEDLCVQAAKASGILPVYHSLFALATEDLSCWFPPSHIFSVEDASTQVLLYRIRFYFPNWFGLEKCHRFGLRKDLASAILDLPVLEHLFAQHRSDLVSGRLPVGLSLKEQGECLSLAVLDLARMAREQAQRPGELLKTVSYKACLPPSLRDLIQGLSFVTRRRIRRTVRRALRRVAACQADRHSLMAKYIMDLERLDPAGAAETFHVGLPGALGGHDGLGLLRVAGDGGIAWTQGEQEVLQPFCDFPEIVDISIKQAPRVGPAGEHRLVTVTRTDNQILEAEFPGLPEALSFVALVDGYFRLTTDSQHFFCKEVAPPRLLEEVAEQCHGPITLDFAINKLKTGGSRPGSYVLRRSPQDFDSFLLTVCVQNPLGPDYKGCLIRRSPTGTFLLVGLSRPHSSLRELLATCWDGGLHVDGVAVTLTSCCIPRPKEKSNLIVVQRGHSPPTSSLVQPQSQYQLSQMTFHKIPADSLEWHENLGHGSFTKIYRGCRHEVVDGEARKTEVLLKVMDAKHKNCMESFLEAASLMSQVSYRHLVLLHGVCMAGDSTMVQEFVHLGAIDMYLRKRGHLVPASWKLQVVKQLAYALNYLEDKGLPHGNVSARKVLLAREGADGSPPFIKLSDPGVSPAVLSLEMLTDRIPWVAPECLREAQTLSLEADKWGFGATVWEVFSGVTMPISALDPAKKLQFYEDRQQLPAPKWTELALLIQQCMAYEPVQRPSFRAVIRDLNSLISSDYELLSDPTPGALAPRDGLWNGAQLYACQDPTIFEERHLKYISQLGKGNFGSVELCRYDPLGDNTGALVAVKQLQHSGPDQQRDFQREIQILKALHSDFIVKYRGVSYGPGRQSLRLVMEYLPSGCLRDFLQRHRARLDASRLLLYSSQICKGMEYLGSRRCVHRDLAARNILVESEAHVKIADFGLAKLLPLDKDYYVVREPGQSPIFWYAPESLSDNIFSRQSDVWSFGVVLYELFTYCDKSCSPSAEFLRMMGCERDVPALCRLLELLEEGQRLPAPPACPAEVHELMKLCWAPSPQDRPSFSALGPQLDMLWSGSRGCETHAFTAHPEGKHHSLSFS", "test": "as §1"}, "[3]": {"molecular_target": "Tyrosine-protein kinase JAK1 (Homo sapiens, UniProt P23458)", "sequence (P23458 whole entry)": "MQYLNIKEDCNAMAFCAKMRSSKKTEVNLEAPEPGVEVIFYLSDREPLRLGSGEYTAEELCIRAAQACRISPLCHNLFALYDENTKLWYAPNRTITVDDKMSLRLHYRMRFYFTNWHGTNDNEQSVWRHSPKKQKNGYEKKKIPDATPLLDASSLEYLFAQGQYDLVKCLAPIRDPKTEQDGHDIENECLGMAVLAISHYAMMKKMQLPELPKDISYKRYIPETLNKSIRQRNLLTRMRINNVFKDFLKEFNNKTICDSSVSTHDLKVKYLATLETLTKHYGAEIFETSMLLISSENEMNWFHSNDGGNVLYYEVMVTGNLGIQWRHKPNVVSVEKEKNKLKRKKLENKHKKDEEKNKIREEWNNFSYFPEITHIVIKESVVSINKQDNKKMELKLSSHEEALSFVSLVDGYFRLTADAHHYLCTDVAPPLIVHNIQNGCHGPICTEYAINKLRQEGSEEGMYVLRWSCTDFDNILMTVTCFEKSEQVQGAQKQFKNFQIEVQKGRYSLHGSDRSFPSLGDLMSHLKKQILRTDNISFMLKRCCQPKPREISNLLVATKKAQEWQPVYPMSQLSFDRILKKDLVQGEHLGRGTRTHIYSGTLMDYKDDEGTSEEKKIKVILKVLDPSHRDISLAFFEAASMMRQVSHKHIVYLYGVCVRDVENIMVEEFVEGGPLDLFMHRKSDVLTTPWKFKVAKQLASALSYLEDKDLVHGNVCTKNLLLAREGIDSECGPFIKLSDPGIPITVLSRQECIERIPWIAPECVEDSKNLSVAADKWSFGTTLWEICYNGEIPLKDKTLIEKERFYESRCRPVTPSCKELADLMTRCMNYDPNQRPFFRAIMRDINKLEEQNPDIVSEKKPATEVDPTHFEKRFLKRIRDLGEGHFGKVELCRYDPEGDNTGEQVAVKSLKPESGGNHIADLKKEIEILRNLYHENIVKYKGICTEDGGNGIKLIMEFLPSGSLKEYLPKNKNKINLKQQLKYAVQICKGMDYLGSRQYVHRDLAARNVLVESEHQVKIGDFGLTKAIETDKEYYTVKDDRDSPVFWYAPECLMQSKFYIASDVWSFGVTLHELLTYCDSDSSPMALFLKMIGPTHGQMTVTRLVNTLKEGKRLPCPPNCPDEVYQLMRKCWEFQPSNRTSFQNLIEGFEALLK", "test": "as §1"}, "[4]": {"molecular_target": "Non-receptor tyrosine-protein kinase TYK2 (Homo sapiens, UniProt P29597)", "sequence (P29597 whole entry)": "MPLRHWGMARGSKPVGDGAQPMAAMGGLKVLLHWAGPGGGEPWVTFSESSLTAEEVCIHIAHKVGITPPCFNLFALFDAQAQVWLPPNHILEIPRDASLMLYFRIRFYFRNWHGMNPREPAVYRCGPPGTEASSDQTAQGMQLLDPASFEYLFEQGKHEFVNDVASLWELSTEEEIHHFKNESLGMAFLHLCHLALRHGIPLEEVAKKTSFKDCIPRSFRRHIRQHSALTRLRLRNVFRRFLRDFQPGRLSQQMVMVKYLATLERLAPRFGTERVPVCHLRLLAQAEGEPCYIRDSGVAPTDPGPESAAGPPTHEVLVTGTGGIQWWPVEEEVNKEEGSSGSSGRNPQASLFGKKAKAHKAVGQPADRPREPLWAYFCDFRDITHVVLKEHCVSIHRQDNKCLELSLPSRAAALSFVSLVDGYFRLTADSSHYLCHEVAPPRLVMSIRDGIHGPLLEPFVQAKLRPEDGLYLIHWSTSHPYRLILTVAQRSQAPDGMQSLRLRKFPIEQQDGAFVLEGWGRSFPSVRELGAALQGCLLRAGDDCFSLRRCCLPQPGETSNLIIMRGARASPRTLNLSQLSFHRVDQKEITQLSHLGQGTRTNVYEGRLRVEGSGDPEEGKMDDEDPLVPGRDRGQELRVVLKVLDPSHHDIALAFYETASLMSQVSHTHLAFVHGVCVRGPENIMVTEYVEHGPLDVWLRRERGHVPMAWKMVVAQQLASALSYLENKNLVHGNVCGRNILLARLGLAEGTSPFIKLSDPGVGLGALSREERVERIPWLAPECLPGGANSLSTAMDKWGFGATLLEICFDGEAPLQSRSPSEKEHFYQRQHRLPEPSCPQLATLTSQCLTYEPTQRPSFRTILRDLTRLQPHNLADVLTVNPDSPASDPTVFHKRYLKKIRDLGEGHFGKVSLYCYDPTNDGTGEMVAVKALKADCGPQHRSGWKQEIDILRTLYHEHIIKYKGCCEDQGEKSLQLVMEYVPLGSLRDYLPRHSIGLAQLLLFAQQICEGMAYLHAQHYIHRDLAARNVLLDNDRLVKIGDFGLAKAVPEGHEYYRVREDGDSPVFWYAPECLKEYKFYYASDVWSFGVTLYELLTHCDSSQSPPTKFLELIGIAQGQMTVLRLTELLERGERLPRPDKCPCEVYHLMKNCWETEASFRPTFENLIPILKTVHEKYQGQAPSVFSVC", "test": "as §1"}},
  "note": "pIC50: −log10 of the molar value.",
  "data": [
    {"smiles": "O=C(CBr)Nc1cccc(-c2cnc3ccccc3n2)c1", "values": [
      {"measurement": "pIC50", "setting": "[1]", "value": "< 5.00"},
      {"measurement": "pIC50", "setting": "[2]", "value": 9.52},
      {"measurement": "pIC50", "setting": "[3]", "value": "< 5.00"},
      {"measurement": "pIC50", "setting": "[4]", "value": "< 5.00"}
    ]}
  ]
}
